The subject of this experiment is mouse colon 26 cell line. Type of experiment: in vivo. As to conditions: 18 mg/kg aspirin alone, tail vein, twice a week; day 23; compared to PBS alone. The method, then: The shedding microvesicles derived from E. coli, P. aeruginosa, and S. enteritidis were assayed for anticancer activity. A mouse colon 26 cell line was subcutaneously injected at a dose of 1×10^6 cells into mice, and cultured. After one week, a PBS solution containing 1 μg, or 5 μg of each of the Gram-negative bacterial cell-derived microvesicles was injected at a dose of 100 μl twice a week via the tail vein into the mice which were divided into groups, each consisting of three. On day 23 after the transplantation of cancer cells, the sizes of colon cancer tissue were monitored. The volume of cancer tissue was calculated by the equation V=l×s^2/2, wherein 1 is a length of the longest axis of a tumor and s is a length of the axis perpendicular to the longest axis.
The shedding microvesicles derived from S. aureus and Lactobacillus acidophilus were assayed for anticancer activity. […] On day 23 after the transplantation of cancer cells, the sizes of colon cancer tissue were monitored. The volume of cancer tissue was calculated by the equation V=l×s^2/2, wherein 1 is a length of the longest axis of a tumor and s is a length of the axis perpendicular to the longest axis.
A mouse colon 26 cell line was subcutaneously injected at a dose of 1×10^6 cells into mice, and cultured. […] On day 23 after the transplantation of cancer cells, the sizes of colon cancer tissue were monitored. […]

Structures are written as SMILES.

For `CC(=O)Oc1ccccc1C(=O)O` [aspirin], the “size of colon tumors” value is “no differences in the size of colon tumors”.

The record behind these values is patent publication US9066971B2 (priority 2010, dated 2015).
